From US20220323400A1, “INHIBITORS OF SGLT AND USES THEREOF” (The Regents of the University of Michigan, priority 2019, published 2022)

Tests used:
WT rabbits = assay: Urine sugar levels in WT rabbits after Sota treatment; type: in vivo, rabbit; conditions: WT rabbits (n=2)
Experimental: Experiments were conducted that first examined the physiological responses of rabbits to Sota by measuring the urine sugar levels to assess urinary glucose excretion (FIG. 9). Sota was given to WT rabbits (n=2) daily for five days. […] This confirmed that rabbits respond to Sota similarly as rodents and human patients.

CF rabbits [1] = type: in vivo, rabbit
Experimental: (§1) ) has beneficial effects on treating CF, 5 CF rabbits were daily gavaged with LX4211 (15 mg/kg/day) for 4 weeks. The intravenous glucose tolerance test (IVGTT) and insulin tolerance test (ITT) were performed before treatment and at 4 weeks after treatment. Urine was collected daily to assess urinary glucose excretion. Blood was collected biweekly for the analysis of chemical panels including glucose, insulin, liver function, kidney function, lipid profiles and electrolytes. At the end of the experiment, the organ tissues of CF rabbits were collected for histology staining.
Because most CF rabbits eventually die of gut obstruction for which abdominal hardening (which can be felt by palpation) has been used as a clinical sign, such softening may indicate beneficial effects on alleviating GI obstruction, although further studies are needed to confirm this predication.

CF rabbits [2] = assay: Urinary glucose excretion in CF rabbits treated with LX4211; type: in vivo, rabbit; conditions: 15 mg/kg/day daily gavage
Experimental: as §1

CF rabbits [3] = assay: Survival length of CF rabbits treated with LX4211; type: in vivo, rabbit; conditions: FIG. 3
[4] = rabbit, in vivo
CF rabbits [5] = assay: IVGTT in CF rabbits prior to and after Sota treatment; type: in vivo, rabbit; conditions: CF rabbits (n=6), 15 mg/kg/day daily gavage 4 weeks, vs non-treatment, FIGS. 10B & C
Experimental: Experiments were conducted that next proceeded to treat CF rabbits (n=6) with Sota (15 mg/kg/day) by daily gavage for 4 weeks (FIG. 10A). The IVGTT test was performed prior to and 4 weeks after treatment.

CF rabbits [6] = assay: Blood chemistry of CF rabbits treated with Sota for 10 weeks; type: in vivo, rabbit; conditions: 5 CF rabbits treated 10 weeks vs untreated control group, FIG. 11
Source text: It is known that many CF patients show abnormalities in their blood chemistry tests. Blood chemistry in CF rabbits was also examind. In one study, blood was collected from 5 CF rabbits for the analysis of chemical panels including electrolytes, glucose and other metabolic parameters, and compared with those of WT rabbits (n=15). CF rabbits presented many abnormalities in metabolic parameters including lower serum potassium (WT 4.35±0.25 vs. CF 3.14±0.3, p<0.05), higher triglyceride (WT 75.8±69.5 vs. CF 447.0±76.6, p<0.05), cholesterol (WT 31.6±9.76 vs. CF 177.2±206.3, p<0.05) and glucose (WT 110.4±9.99 vs. CF 160.6±37.5, p<0.05). Abnormalities of serum ALP, CPK and Calcium were also detected in CF rabbits.
To evaluate if Sota has any effects on the blood chemistry parameters of CF rabbits, experiments were conducted wherein 5 CF rabbits were treated with Sota for 10 weeks.

CF rabbits [7] = assay: Blood chemical panels in CF rabbits treated with LX4211; type: in vivo, rabbit
Experimental: as §1
Abnormalities of serum ALP, CPK and Calcium were also detected in CF rabbits.

CF rabbits [8] = assay: Intravenous glucose tolerance test (IVGTT) in CF rabbits treated with LX4211; type: in vivo, rabbit; conditions: FIG. 1
Experimental: as §1

CF rabbits [9] = assay: Lifespan (survival curve) of Sota-treated CF rabbits; type: in vivo, rabbit; conditions: treatment starting on Day 49 of age
Source text: This is further supported by the elongated lifespan of Sota-treated CF rabbits. […] These findings indicate that contrary to the beliefs by many, the SGLT inhibitor drugs are indicative of bringing benefits with minimal risks to CF patients.

With Sotagliflozin [LX4211] the “urine sugar level upon retrieval of the drug” value (WT rabbits; D7, FIG. 9) was “immediately returned to normal”, the “urine sugar level during treatment” value (WT rabbits; daily for five days, D1-D5, FIG. 9) was “spike of urine sugar level was seen the second day (D1) and remained high during the treatment days” and the daily abdominal palpation (CF rabbits [1]; CF rabbits, 15 mg/kg/day daily gavage, abdominal hardening is a clinical sign of gut obstruction) was “softening of the abdominal”. For the same substance, the “adverse response to treatment” value (CF rabbits [1]; rabbit, in vivo, 15 mg/kg/day) was “no obvious adverse response”, the urine glucose levels (CF rabbits [2]) was “spiked starting D1 after the treatment” and the survival length (CF rabbits [3]) was “improved survival length”. The weight gain [4] was “gained weight at a similar rate”, the “blood glucose elimination rate (IVGTT)” value (CF rabbits [5]) was “significantly higher” and the ALP (CF rabbits [6]) was “significantly improved”. For the same substance, the CPK (CF rabbits [6]) was “significantly improved”, the Chol (CF rabbits [6]) was “significantly improved” and the Glucose (CF rabbits [6]) was “significantly improved”. The “K+” value (CF rabbits [6]) was “significantly improved”, the Trig (CF rabbits [6]) was “significantly improved” and the CPK (CF rabbits [7]; 15 mg/kg/day, FIG. 4) was “significant rescue effects”. For the same substance, the Calcium (CF rabbits [7]; 15 mg/kg/day, FIG. 4) was “significant rescue effects”, the cholesterol (CF rabbits [7]; 15 mg/kg/day, FIG. 4) was “significant rescue effects” and the triglyceride (CF rabbits [7]; 15 mg/kg/day, FIG. 4) was “significant rescue effects”. The “hyperglycemia (glucose)” value (CF rabbits [7]; 15 mg/kg/day, FIG. 4, FIG. 5) was “significantly attenuated”, the “hypokalemia (serum potassium)” value (CF rabbits [7]; 15 mg/kg/day, FIG. 4, FIG. 5) was “significantly attenuated” and the “ALB (Albumin)” value (CF rabbits [7]; FIG. 6) was “restored”. For the same substance, the “TPRO (Total Protein)” value (CF rabbits [7]; FIG. 6) was “restored”, the glucose tolerance (CF rabbits [8]; CF rabbits, 15 mg/kg/day, before vs 4 weeks after treatment) was “restored glucose tolerance” and the “GTT response of one CF rabbit with signs of CF related diabetes (CFRD)” value (CF rabbits [8]; one CF rabbit, prior to vs after treatment) was “restored to normal”. The median lifespan (CF rabbits [9]; CF rabbits (n=10), FIG. 12 right panel) was over 150 days and the “number of treated CF rabbits that lived beyond 150 days” value (CF rabbits [9]; of n=10 CF rabbits) was 6.
